Results as given in patent US8008506B2, “Indazole compounds” (priority 2008, dated 2011).

Experiments:
[1] = system: urinary bladder smooth muscle isolated from common marmoset; test: Test Example 7: relaxant activity on urinary bladder smooth muscle isolated from common marmoset; conditions: KCl 40 mmol/L contraction, papaverine 10^−4 mol/L relaxation taken as 100%
Protocol: Common marmosets are (CLEA Japan, Inc.) exsanguinated to death, and then are subjected to laparotomy to isolate the urinary bladder therefrom. […] The strips are applied a resting tension of 1 g, and are equilibrated for at least 30 minutes. After the resting tension of the strips have been equilibrated, KCl at a final concentration of 40 mmol/L is repeatedly added to the organ bath, and it is confirmed that contraction due to KCl becomes almost constant. […] When the relaxation response at the maximum concentration of the test compound is completed, papaverine at a final concentration of 10^−4 mol/L is added, and the maximum relaxation response of each strip is determined.

[2] = biological target: T1, human β3 adrenergic receptor (Homo sapiens, UniProt P13945); test: Test Example 1-A: human β3 adrenergic receptor agonist activity (cAMP EIA, transfected CHO cells, 24-well); assay type: cell-based; conditions: Table 1; maximum response to isoproterenol taken as 100%
T1 construct: the full length human β3 gene is obtained from a human genomic library; expressed in transfected cells; host or cells: CHO (Chinese Hamster Ovary) cells, pcDNA3, geneticin selection
Protocol: (§1) Measurement of Human β3 Adrenergic Receptor Agonist Activity
The measurement of human β3 adrenergic receptor agonist activity is carried out using CHO (Chinese Hamster Ovary) cells transfected with pcDNA3 (manufactured by Invitrogen, Inc.) to which human β3 gene has been inserted. […] This human β3 cDNA fragment is used as a probe, and the full length human β3 gene is obtained from a human genomic library (manufactured by Clontech Laboratories, Inc.). The above cells are cultured in Ham's F-12 medium containing 10% fetal bovine serum and 400 μg/ml geneticin (manufactured by Invitrogen, Inc.). These cells are seeded on a 24-well plate to a concentration of 1×10^5 cells/well, and after being cultured for about 20 hours, the cells are left to stand in serum-free Ham's F-12 medium for 2 hours. A test compound is initially dissolved in DMSO, and then is diluted stepwise with Ham's F-12 containing 20 mmol/L HEPES, 1 mmol/L isobutylmethylxanthine, and 1 mmol/L ascorbic acid. The dilution is added to the cells. After the cells are cultured for 30 minutes, and then the medium is removed, followed by addition of 0.1 ml of 1 N NaOH to the cells. The cells are left to stand for 20 minutes, and then are added with 0.1 ml of 1 N acetic acid and are stirred. The resulting cell lysate is centrifuged, and then is subjected to quantification of cAMP with cAMP EIA kit (manufactured by Cayman Chemical Co.).

[3] = biological target: T1, human β3 adrenergic receptor; test: Test Example 1-B: human β3 adrenergic receptor agonist activity (cAMP-Screen kit, transfected CHO cells, 96-well); assay type: cell-based; conditions: Table 2; maximum response to isoproterenol taken as 100%
Protocol: as §1
The measurement of human β3 adrenergic receptor agonist activity is carried out using CHO (Chinese Hamster Ovary) cells transfected with pcDNA3 (manufactured by Invitrogen, Inc.) to which human β3 gene has been inserted. […] This human β3 cDNA fragment is used as a probe, and the full length human β3 gene is obtained from a human genomic library (manufactured by Clontech Laboratories, Inc.). The above cells are cultured in Ham's F-12 medium containing 10% fetal bovine serum and 400 μg/ml geneticin (manufactured by Invitrogen, Inc.). These cells are seeded on a 96-well plate to a concentration of 2×10^4 cells/well, and after being cultured for about 20 hours, the cells are left to stand in 80 μL of serum-free Ham's F-12 medium for 15 minutes. A test compound is initially dissolved in DMSO, and then is diluted stepwise with Ham's F-12 containing 100 mmol/L HEPES and 1 mmol/L isobutylmethylxanthine. 20 μL of the dilution is added to the cells. After the cells are cultured for 30 minutes, the medium is removed. 0.3. ml of the Assay/lysis Buffer included in cAMP-Screen kit (manufactured by Applied Biosystems, Inc.) is added to the cells, and the cells are incubated at 37° C. for 30 minutes. The resulting cell lysate is subjected to quantification of cAMP with the cAMP-Screen kit.

T1 sequence (P13945 whole entry): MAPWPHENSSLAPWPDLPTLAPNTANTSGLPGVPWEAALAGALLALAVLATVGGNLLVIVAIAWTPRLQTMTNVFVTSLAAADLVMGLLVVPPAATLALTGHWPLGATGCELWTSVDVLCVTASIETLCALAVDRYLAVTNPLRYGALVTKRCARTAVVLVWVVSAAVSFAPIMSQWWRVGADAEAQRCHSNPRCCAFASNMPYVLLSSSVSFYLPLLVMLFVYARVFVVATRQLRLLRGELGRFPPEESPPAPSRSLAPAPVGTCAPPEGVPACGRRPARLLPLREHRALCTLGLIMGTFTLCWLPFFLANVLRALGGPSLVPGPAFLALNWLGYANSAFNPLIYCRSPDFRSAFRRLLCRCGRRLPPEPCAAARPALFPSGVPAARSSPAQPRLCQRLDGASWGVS

Structure (SMILES): CC(C)NCC(O)c1ccc(O)c(O)c1 (stereo not shown) [Isoproterenol, reference compound]
- relaxant activity (%) 10^−4 M ([1]; 10^−4 M): 62.8%
- relaxant activity (%) 10^−5 M ([1]; 10^−5 M): 58.0%
- β3 receptor I.A. [2]: 100%
- β3 receptor I.A. [3]: 100%
